Patent US20180148418A1, “AMIDO-SUBSTITUTED CYCLOHEXANE DERIVATIVES” (Bayer Pharma Aktiengesellschaft, priority 2015, published 2018)
Structures can show the parent of a compound that is named as a salt.

Tests used:
[1] = biological target: T1, TNKS1 (Homo sapiens, UniProt O95271); test: TNKS1 Assay B (auto-parsylation, [3H]-NAD+ SPA); type: biochemical; settings: 6 nM TNKS1, auto-parsylation, over night at room temperature
T1 construct: purchased BPS Bioscience, San Diego, USA 80579 (TNKS1 Histone Ribosylation Assay Kit)
T1 sequence (O95271 1-1327): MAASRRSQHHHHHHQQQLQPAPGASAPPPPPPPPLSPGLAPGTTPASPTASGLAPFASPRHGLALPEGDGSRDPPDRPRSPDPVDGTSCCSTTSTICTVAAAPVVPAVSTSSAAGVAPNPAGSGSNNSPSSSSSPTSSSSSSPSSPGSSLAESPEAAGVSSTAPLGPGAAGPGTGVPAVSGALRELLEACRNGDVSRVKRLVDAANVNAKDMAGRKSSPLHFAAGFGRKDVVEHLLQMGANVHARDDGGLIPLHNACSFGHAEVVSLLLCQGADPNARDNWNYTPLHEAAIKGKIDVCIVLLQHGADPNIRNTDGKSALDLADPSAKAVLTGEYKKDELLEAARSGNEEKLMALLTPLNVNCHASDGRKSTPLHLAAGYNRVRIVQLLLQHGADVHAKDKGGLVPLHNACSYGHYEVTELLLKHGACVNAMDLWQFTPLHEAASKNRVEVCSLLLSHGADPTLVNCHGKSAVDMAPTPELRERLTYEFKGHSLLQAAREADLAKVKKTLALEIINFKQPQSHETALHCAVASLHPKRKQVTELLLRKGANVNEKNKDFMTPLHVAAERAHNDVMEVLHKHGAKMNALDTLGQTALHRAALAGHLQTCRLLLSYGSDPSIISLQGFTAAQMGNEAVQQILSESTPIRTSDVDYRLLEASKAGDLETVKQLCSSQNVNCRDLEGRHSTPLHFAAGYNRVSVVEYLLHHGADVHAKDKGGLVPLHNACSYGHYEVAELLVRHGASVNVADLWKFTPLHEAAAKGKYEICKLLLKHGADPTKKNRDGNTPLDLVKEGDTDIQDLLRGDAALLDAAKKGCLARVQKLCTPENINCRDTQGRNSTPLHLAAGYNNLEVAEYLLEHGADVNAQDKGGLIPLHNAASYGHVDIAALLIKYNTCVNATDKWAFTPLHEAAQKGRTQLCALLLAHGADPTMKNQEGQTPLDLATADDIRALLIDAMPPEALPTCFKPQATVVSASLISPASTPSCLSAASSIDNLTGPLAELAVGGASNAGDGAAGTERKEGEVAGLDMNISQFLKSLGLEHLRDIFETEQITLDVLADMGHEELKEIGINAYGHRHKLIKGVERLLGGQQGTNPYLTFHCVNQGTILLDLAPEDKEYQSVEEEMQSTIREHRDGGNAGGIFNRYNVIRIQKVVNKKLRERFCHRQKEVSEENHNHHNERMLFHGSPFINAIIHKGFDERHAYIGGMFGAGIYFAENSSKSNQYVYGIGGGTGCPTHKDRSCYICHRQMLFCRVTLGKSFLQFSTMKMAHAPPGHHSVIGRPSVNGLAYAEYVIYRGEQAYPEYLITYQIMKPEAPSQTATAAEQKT

[2] = system: HEK293 cells cotransfected with the FOP control vector; test: HEK293 FOP assay (control reporter with non-functional TCF elements); type: cell-based; settings: Homo sapiens, 16 hours
How it was run: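 Compound series from 50 μM down to 15 nM, prediluted in DMSO then 50-fold into CAFTY buffer (pH 7.4, 2 mM Ca2+, 0.01% BSA), tested alongside TOP cells on a Geneticin-selected HEK293 FOP line whose TCF elements are replaced by a random sequence; recombinant human Wnt-3a applied at 2500-5 ng/ml.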

Row | SMILES | IC50 [1] | IC50 [2]
1 | CNC(=O)c1[nH]cnc1C(=O)NC1CCC(C(=O)Nc2ccc(F)cc2Cl)CC1C (racemic) [Example 39, N^4-{4-[(2-chloro-4-fluorophenyl)carbamoyl]-2-methylcyclohexyl}-N^5-methyl-1H-imidazole-4,5-dicarboxamide] | 380 nM | 
2 | Cc1c(C(C)N(C)C)cnc2c(C(=O)N[C@H]3CC[C@H](C(=O)Nc4ccc(F)cc4Cl)CC3)cnn12 (mixture of isomers) [Example 55, N-{trans-4-[(2-chloro-4-fluorophenyl)carbamoyl]cyclohexyl}-6-[1-(dimethylamino)ethyl]-7-methylpyrazolo[1,5-a]pyrimidine-3-carboxamide formic acid salt] | 740 nM | ≥ 50000 nM
3 | O=C(NCCN1CCCCC1)c1nc[nH]c1C(=O)N[C@H]1CC[C@H](C(=O)Nc2ccc(F)cc2Cl)CC1 [Example 2, N^5-{trans-4-[(2-chloro-4-fluorophenyl)carbamoyl]cyclohexyl}-N^4-[2-(piperidin-1-yl)ethyl]-1H-imidazole-4,5-dicarboxamide] | 550 nM | ≥ 50000 nM
4 | CNC(C)c1cnc2c(C(=O)N[C@H]3CC[C@H](C(=O)Nc4ccc(F)cc4Cl)CC3)cnn2c1C (stereo partly drawn) [Example 54, N-{trans-4-[(2-chloro-4-fluorophenyl)carbamoyl]cyclohexyl}-7-methyl-6-[1-(methylamino)ethyl]pyrazolo[1,5-a]pyrimidine-3-carboxamide formic acid salt] | 460 nM | ≥ 50000 nM
5 | COCC(C)NC(=O)c1nc[nH]c1C(=O)N[C@H]1CC[C@H](C(=O)Nc2cc(N3CCOCC3)ccc2Cl)CC1 (stereo partly drawn) [Example 91, N^5-(trans-4-{[2-chloro-5-(morpholin-4-yl)phenyl]carbamoyl}cyclohexyl)-N^4-(1-methoxypropan-2-yl)-1H-imidazole-4,5-dicarboxamide] | 2800 nM | ≥ 50000 nM
